This is an account of results in patent US20230009323A1, “COMPOUNDS AND METHODS FOR THE TREATMENT OF CRYPTOSPORIDIOSIS” (The Broad Institute, Inc., priority 2019, published 2023).

Data set [1] has as its system C. parvum (Iowa) Sterling. The data set can be described thus: C. parvum (Iowa) Sterling growth in HCT-8 cells. To be noted: Cryptosporidium parvum. Format: cell-based. The protocol:
(§1) Studies using farm C. parvum isolates and the C. hominis TU502 isolate were performed by Calibr at Scripps Research (La Jolla, Calif.) in 1,536-well plates using a slightly modified immunofluorescence assay as described in Love, M. S. et al. PLoS neglected tropical diseases 11, e0005373, doi:10.1371/journal.pntd.0005373 (2017), hereby incorporated by reference in its entirety. HCT-8 cell culture medium was replaced with RPMI 1640 medium supplemented with 2% heat-inactivated horse serum, 100 U·mL^−1 penicillin, and […] 24 h prior to infection with the indicated isolate. The C. parvum Iowa isolate was included as a reference in all experiments. Imaging was performed using a Cellnsight CX5 High Content screening platform (Thermo Scientific) with a 10× objective and acquisition of one microscopic field per well. Images were processed using HCS Studio Scan software, and the selected-object count (HCT-8 cells) and spot count (parasitophorous vacuoles) were analyzed in Genedata Screener (version 13.0; Standard). Dose-response curves and EC50 values were calculated using the Smart Fit function of Genedata Analyzer.

Data set [2] deals with C. parvum Iowa isolate (Bunch Grass Farm). Nature of the data set: C. parvum Iowa isolate (Bunch Grass Farm) growth in HCT-8 cells, high-content microscopy. Format: cell-based. The following applies: Cryptosporidium parvum. The protocol:
A high-content microscopy assay was used to measure activity of compounds against C. parvum grown in the human adenocarcinoma cell line HCT-8 (ATCC) as disclosed in Bessoff, K., et al., Antimicrobial agents and chemotherapy 57, 1804-1814, doi:10.1128/AAC.02460-12 (2013), hereby incorporated by reference in its entirety. HCT-8 cells were cultured in 384-well clear-bottomed plates in 50 μL per well of RPMI 1640 medium ([…]), 120 U·mL^−1 penicillin, and 120 μg·mL^−1 streptomycin (ATCC) at 37° C. under 5% CO2. For compound screening and follow-up SAR studies, confluent cell monolayers were infected with C. parvum Iowa isolate oocysts [Bunch Grass Farm (Deary, Id.); ˜5,500 oocysts per well] after inducing excystation by treatment for 10 min at 37° C. with 10 mM HCl and then 10 min at 16° C. in 2 mM sodium taurocholate. Compounds were added at the indicated concentrations 3 h after monolayer infection. After incubation (37° C., 5% CO2) for 48 h, the cells were washed three times with PBS containing 111 mM D-Galactose and fixed by adding an equal volume of 8% formaldehyde in PBS. Cell monolayers were then prepared for microscopy by permeabilizing with 0.1% Triton X-100, washing three times with PBS with 0.1% Tween 20, blocking with 4% bovine serum albumin (BSA) in PBS for 2 h at 37° C. or 4° C. overnight, and staining parasitophorous vacuoles with 1.33 μg·mL^−1 of fluorescein-labeled Vicia villosa lectin (Vector Laboratories) diluted in 1% BSA in PBS with 0.1% Tween 20 for 1 h at 37° C. DNA was then stained by adding Hoechst 33258 (AnaSpec) at a final concentration of 0.09 mM diluted in water, followed by washing five times with PBS containing 0.1% Tween 20. Images were acquired using a Nikon Eclipse TE2000 epifluorescence microscope with an automated stage that was programmed using NIS-Elements Advanced Research software (Nikon) to focus on the center of each well and take a 3×3 composite image using an EXi Blue fluorescence microscopy camera (QImaging) with a 20× objective (numerical aperture 0.45). Nucleus and parasite images were exported separately as tif files and analyzed using NIH ImageJ and previously reported macros, and data analysis and graphing were done using GraphPad Prism software, version 6.01. […]

Another data set in a line: HEK293T cytotoxicity. Format: cell-based. To be noted: human, HEK293T cells.
The subject of the next data set is C. hominis (TU 502). The data set can be described thus: C. hominis TU502 growth in HCT-8 cells. Format: cell-based. The following applies: Cryptosporidium hominis. The protocol: as §1
In data set [3] the test system is C. parvum (Field Isolate) WSU. The data set can be described thus: C. parvum field isolate (WSU) growth in HCT-8 cells. The following applies: Cryptosporidium parvum. Format: cell-based. The protocol:
as §1

Another data set in a line: HepG2 cytotoxicity. Format: cell-based. To be noted: human, HepG2 cells.
The next data set concerns HepG2 cells. The data set can be described thus: HepG2 cytotoxicity. Format: cell-based. The following applies: C. parvum Iowa isolate (1% FBS) EC50 compared to HepG2 CC50.
The next data set has as its system C. parvum. The data set can be described thus: NOD SCID gamma mouse model of established cryptosporidiosis, fecal oocyst shedding by qPCR. Format: in vivo, NOD SCID gamma mice. To be noted: oral, 50 mg/kg every 24 h for 4 days. An excerpt:
FIG. 4A is a schematic of NOD SCID gamma (NSG) mouse model of established intestinal cryptosporidiosis. Intestinal C. parvum infection was established by oral gavage of ˜10^5 oocysts either 7 days (FIGS. 4B and C) or 14 days (FIG. 4D) prior to oral treatment with bicyclic azetidines, vehicle, or paromomycin (positive control). All data are the mean and SEM (n=4 mice per experimental group) of parasite shedding per mg of feces measured by qPCR with results for individual mice shown as superimposed data points. Data points for which no parasite DNA was detected are shown at the qPCR assay limit of detection (0.1 oocysts per mg feces).
NOD scid gamma mice (NOD.Cg-Prkdcscid Il2rgtmlWjl/Szj; Jackson Laboratory, Bar Harbor, Me.) (NSG) were used to model established Cryptosporidium infection. All NSG mouse studies were performed in compliance with animal care guidelines and with approval by the University of Vermont Institutional Animal Care and Use Committee. Mice were acquired at three to four weeks of age, and acclimatized for one week prior to infection by oral gavage of ˜10^5 C. parvum Iowa isolate (Bunch Grass Farms) oocysts. They were then treated at the specified times and dosages with each compound dissolved in 0.5% hydroxypropylmethyl cellulose, 0.5% Tween 80 (v/v) plus 5% DMSO.
This cryptosporidiosis infection model used 3-4 week old, freshly weaned, NOD SCID gamma mice orally infected with C. parvum oocysts (˜1×10^5). The infection was monitored by qPCR of feces with primers specific for C. parvum and data are shown as number of oocysts milligram^−1 of feces. Six days following infection and upon confirmation of parasite shedding by qPCR, the three compounds, negative and positive control were orally administered at 50 mg·kg^−1 (body weight) every 24 h for 4 days. (FIGS. 4A-D). […] We then performed a dose-ranging study with Compound 11 using the same immunocompromised mouse model and dosing regimens of 5, 20 and 40 mg·kg^−1 every 24 h for 4 days or 10 mg·kg^−1 every 24 h for 7 days. Mice were monitored for an additional 14 days for relapse of infection.

Read-outs that look alike come from different tables or passages of the source. Bounds are passed on as bounds.

The term EC50 denotes the concentration at which the effect is half-maximal. As a reminder, the CC50 is the concentration that lowers cell viability or growth by half. The low end stands for harm at low concentration, the high end for better tolerance by the cells. Take `COc1ccc(NC(=O)N2CCCCN3[C@H](CN(C)C(C)=O)[C@H](c4ccc(C#Cc5ccccc5)cc4)[C@@H]3C2)cc1` [Compound 16, (8R,9S,10S)-N-(4-methoxyphenyl)-10-((N-methylacetamido)methyl)-9-(4-(phenylethynyl)phenyl)-1,6-diazabicyclo[6.2.0]decane-6-carboxamide]: the concentration giving a half-maximal response (EC50) in data set [1] was found to be 0.6 nM; in data set [2] (read-out: C. parvum (Iowa) (1% FBS) BGF EC50), 2 nM; in data set [2] (read-out: C. parvum (Iowa) (10% FBS) BGF EC50) it was 8 nM; in the data set on C. hominis (TU 502), 3 nM; in data set [3], 6 nM. The CC50 in “HEK293T cytotoxicity” was found to be 27000 nM; in the data set “HepG2 cytotoxicity”, 25000 nM. Besides, the selectivity index in the data set on HepG2 cells is listed as > 10,000. The “reduction in oocyst shedding (oocysts per mg feces)” value in the data set with C. parvum is listed as “greatest reduction in oocysts”.
